Measured values published in patent publication US6750332B1, “Salicyl alcohol derivatives” (Cognis Deutschland GmbH & Co. KG, priority 1999, dated 2004).

Columns and labels:
[1] = tested on: human HPKII keratinocytes; assay: Cytotoxicity, MTT test in human skin keratinocytes; type: cell-based; details: for toxicity to the cells (MTT test): human HPKII keratinocytes, concentrations showing inhibition of prostaglandin synthesis, incubation 1.5 or 20 h, confluent or subconfluent; for influence on the vitality of skin cells (keratinocytes), FIG. 1: incubated 20 h in culture medium, then MTT reduction test, cell line not given
Excerpt: (§1) Cytotoxicity (in Mouse or Human Skin Keratinocytes, MSCP 5 or HPK II)
(§2) The toxicity of the substances was investigated by the MTT Test (Mosmann 1983) in cell cultures. This test is based on the conversion of the yellow tetrazolium salt MTT into the violet dye formazane. The reaction takes place only in living cells through the succinate dehydrogenase located in the inner mitochondrial membranes. On account of the potential use in cosmetic or pharmaceutical products, skin cells (human HPKII or mouse MSCP 5 keratinocytes) were used as the test system. […] The effect of the substances on the keratinocytes was independent of the time (incubation time 1.5 or 20 h), the growth state (confluent or subconfluent) and the organism (mouse or human).
(§3) The substances were dissolved in the culture medium and incubated with the cells for 20 h. The MTT reduction test was then carried out with fresh medium without test components.

[2] = tested on: COX-2-mRNA in MSCP 5 cells; assay: Northern Blot analysis of COX-2 mRNA in keratinocytes; type: cell-based, mouse; details: subconfluent MSCP 5 cells, 500 μM, 45 mins
Method: Influencing of the Transcription Activity of HPK II (Human Skin Keratinocytes)
The release of prostaglandins can be influenced by inhibitors at several levels. Besides inhibition of the catalytic activity of the prostaglandin synthase proteins, another possible effect is on the messenger RNA of the cyclooxygenases. […] As a negative control, the cells were incubated for 45 minutes in medium containing only the solubilizer acetone (0.25%) but no test substance for the same recorded RNA concentration.

[3] = tested on: mouse MSCP 5 keratinocytes; assay: Cytotoxicity, MTT test in mouse skin keratinocytes; type: cell-based; details: concentrations showing inhibition of prostaglandin synthesis, incubation 1.5 or 20 h, confluent or subconfluent
Excerpt: as §1, §2, §3

[4] = tested on: prostaglandin synthesis in MSCP5 cells; assay: Inhibition of prostaglandin synthesis/release in keratinocytes (14C-arachidonic acid labelling); type: cell-based, mouse; details: 10 μm, incubated 2 hours
Method: Inhibition of Prostaglandin Synthesis by Salicin Derivatives (in Mouse or Human Skin Keratinocytes MSCP 5 or HPK II)
The cells were marked for 16 hours with 0.2 μCi ^14C-arachidonic acid ml^−1 medium. The test substances were added in fresh medium with increasing concentrations and incubated for 2 hours. In the Figure, the substances have the following meanings:
In the positive control NS398 (10 μm) for MSCP5 cells, prostaglandin synthesis is reduced by 85%. The prostaglandins were identified by comparison with reference substances and quantified by radiosensitometry. The result is expressed as the average value of three measurement points: MSCP 5: 100%=201 cpm; HPK II: 100%=63 cpm.

[5] = HLB value (ratio of hydrophilic to hydrophobic component); type: physicochemical
Excerpt: The salicyl alcohol derivatives according to the invention have valuable biological activities such as, for example, anti-inflammatory, antipyretic, antiphlogistic or analgesic effects. Thus, prostaglandin synthesis is inhibited to a greater extent with the compounds according to the invention than, for example, with compounds known from the literature, such as salicin, which is associated with the greater lipophilia of the compounds according to the invention. The better effect is dependent inter alia on efficient absorption by the cell membranes of the keratinocytes. The lipid solubility of glycosidic compounds derives from the ratio of hydrophilic component to hydrophobic component which is described by the HLB value. Salicin which has an HLB value of about 12 is more of a water-soluble molecule whereas salicin esters with HLB values of, in some cases, well below 10 are more liposoluble molecules.

SMILES | toxicity to the cells (MTT test) [1] | influence on the vitality of skin cells (keratinocytes), FIG. 1 [1] | COX-2-mRNA steady state concentration by comparison with untreated cells [2] | toxicity to the cells (MTT test) [3] | reduction of prostaglandin synthesis [4] [%] | HLB value [5]
O=C(Cc1ccc(O)cc1)OC[C@H]1O[C@@H](Oc2ccccc2CO)[C@H](O)[C@@H](O)[C@@H]1O [p-OH-phenyl acetyl salicin, 6-O-p-OH-phenylacetyl-([2-hydroxymethyl)phenyl]-β-D-glucopyranoside] | non-toxic | minimal | greatly reduced | non-toxic |  | 
O=C(CCc1ccccc1)OC[C@H]1O[C@@H](Oc2ccccc2CO)[C@H](O)[C@@H](O)[C@@H]1O [phenylpropionyl salicin, 6-O-phenylpropionyl-[2-(hydroxymethyl)phenyl]-β-D-glucopyranoside] | non-toxic | minimal |  | non-toxic |  | 
CS(=O)(=O)Nc1ccc([N+](=O)[O-])cc1OC1CCCCC1 [NS398] |  |  |  |  | 85 | 
OCc1ccccc1O[C@@H]1O[C@H](CO)[C@@H](O)[C@H](O)[C@H]1O [Salicin, [2-(hydroxymethyl)phenyl]-β-D-glucopyranoside] |  |  |  |  |  | about 12
